These results are taken from ChEMBL document CHEMBL4342429, “Synthesis and evaluation of substituted 8,8-dimethyl-8H-pyrano[2,3-f]chromen-2-one derivatives as vasorelaxing agents” (Bioorg Med Chem Lett, 2020).

In experiment [1] the test system is Mesenteric artery. As to the kind of experiment: Vasodilating activity in Wistar rat endothelium intact main mesenteric artery assessed as inhibition of U46619-induced contractions at 30 uM relative to control. Format: functional.
The subject of experiment [2] is Mesenteric artery. Briefly: Vasodilating activity against U46619-induced contractions in Wistar rat endothelium intact main mesenteric artery assessed as increase in sensitivity relative to scopoletin. Format: functional.
Experiment [3] deals with Mesenteric artery. Briefly: Vasodilating activity in Wistar rat endothelium intact main mesenteric artery assessed as inhibition of U46619-induced contractions. Format: functional, tissue-based. To be noted: for EC50: Rattus norvegicus, Wistar, Mesenteric artery.
The test system of experiment [4] is Mesenteric artery. Briefly: Vasodilating activity in Wistar rat endothelium-denuded main mesenteric artery preconstricted with 100 nM U46619 assessed as vasorelaxation relative to control. Format: functional.
In experiment [5] the test system is Mesenteric artery. As to the kind of experiment: Vasodilating activity in Wistar rat endothelium intact main mesenteric artery preconstricted with 100 nM U46619 assessed as vasorelaxation relative to control. Format: functional.
Experiment [6] deals with Mesenteric artery. Briefly: Vasodilating activity in Wistar rat main mesenteric artery preconstricted with 100 nM U46619 assessed as vasorelaxation relative to control. Format: functional.
Experiment [7] concerns Mesenteric artery. As to the kind of experiment: Vasodilating activity in Wistar rat main mesenteric artery preconstricted with 100 nM U46619 assessed as vasorelaxation in presence of 80 mM KCl relative to control. Format: functional.
For experiment [8], the system named is Mesenteric artery. Briefly: Vasodilating activity in Wistar rat endothelium-denuded main mesenteric artery preconstricted with 100 nM U46619 assessed as vasorelaxation. Format: functional, tissue-based.
The test system of experiment [9] is Mesenteric artery. Briefly: Vasodilating activity in Wistar rat main mesenteric artery preconstricted with 100 nM U46619 assessed as relaxation preincubated for 20 mins in presence of 1 mM tetraethyl ammonium relative to control. Format: functional.
Experiment [10] deals with Mesenteric artery. Briefly: Vasodilating activity in Wistar rat endothelium intact main mesenteric artery preconstricted with 100 nM U46619 assessed as vasorelaxation. Format: functional, tissue-based.
Experiment [11] deals with Mesenteric artery. As to the kind of experiment: Vasodilating activity in Wistar rat endothelium intact main mesenteric artery assessed as inhibition of U46619-induced contractions at 1000 uM relative to control. Format: functional.

Molecules are shown by their SMILES. A value given as a limit tells only on which side of the number the result lay.

Turning to `CCCCN(C)C(=O)COc1cc2ccc(=O)oc2c2c1OC(C)(C)C=C2`, in the experiment on Mesenteric artery [1], the Emax at 30 µM stood at 65.7%. Further, the “fold change (FC)” value in the experiment with Mesenteric artery [2] worked out at 42.11. Moreover, in the experiment on Mesenteric artery [3], the pD2 is reported as 5.575 and the EC50 worked out at 2.66 µM.

In the case of `CCCCCN(C)C(=O)CCCCOc1cc2ccc(=O)oc2c2c1OC(C)(C)C=C2`, the Emax at 30 µM in the experiment on Mesenteric artery [1] was 83.1%. In addition, the “fold change (FC)” value in the experiment with Mesenteric artery [2] came to 22.31. For the same compound, in the experiment on Mesenteric artery [3], the pD2 turned out to be 5.299 and the half-maximal effective concentration (EC50) was determined as 5.02 µM.

For `CN(C)CCOc1cc2ccc(=O)oc2c2c1OC(C)(C)C=C2`, in the experiment on Mesenteric artery [1], the Emax at 30 µM is < 10%.

In the case of `CCCCCN(C)C(=O)COc1cc2ccc(=O)oc2c2c1OC(C)(C)C=C2`, the Emax at 30 µM with Mesenteric artery [1] came out at 94%. In the experiment on Mesenteric artery [2], the “fold change (FC)” value stood at 29.4. Further, in the experiment on Mesenteric artery [3], the pD2 is given as 5.419 and the EC50 amounted to 3.81 µM.

Turning to `COc1cc2ccc(=O)oc2c2c1OC(C)(C)C=C2`, the Emax in the experiment with Mesenteric artery [4] was 93.7%; in the experiment with Mesenteric artery [5] it was 94.9%; in the experiment with Mesenteric artery [6] it was 94%; with Mesenteric artery [7], 53.3%; with Mesenteric artery [9], 54.1%. In the experiment with Mesenteric artery [1], the Emax at 30 µM worked out at 96.7%. The Activity entry in the experiment on Mesenteric artery [8] and with Mesenteric artery [10] was “Dose-dependent effect” each time. Besides, the “fold change (FC)” value with Mesenteric artery [2] is given as 70.89. For the same compound, in the experiment with Mesenteric artery [3], the pD2 turned out to be 5.802. Besides, the EC50 in the experiment with Mesenteric artery [3] came to 1.58 µM.

Regarding `CC(CN(C)C)Oc1cc2ccc(=O)oc2c2c1OC(C)(C)C=C2` (stereo not given), the Emax at 30 µM in the experiment with Mesenteric artery [1] was < 10%.

`CC1(C)C=Cc2c(c(OCCN3CCCC3)cc3ccc(=O)oc23)O1`: the Emax at 30 µM with Mesenteric artery [1] was < 10%.

On to `CC1(C)C=Cc2c(c(OCCN3CCCCC3)cc3ccc(=O)oc23)O1`, for which the Emax at 30 µM in the experiment on Mesenteric artery [1] is < 10%.

For `CCCCN(C)C(=O)CCCCOc1cc2ccc(=O)oc2c2c1OC(C)(C)C=C2`, in the experiment with Mesenteric artery [1], the Emax at 30 µM stood at 63.6%. Moreover, the “fold change (FC)” value with Mesenteric artery [2] was 52.83. Moreover, in the experiment on Mesenteric artery [3], the pD2 is listed as 5.674 and the EC50 was determined as 2.12 µM.

Take `CCCCCN(C)C(=O)CCCOc1cc2ccc(=O)oc2c2c1OC(C)(C)C=C2`: the Emax at 30 µM in the experiment on Mesenteric artery [1] came to 95.1%. Moreover, in the experiment on Mesenteric artery [2], the “fold change (FC)” value was 34.67. In the experiment on Mesenteric artery [3], the pD2 was found to be 5.491 and the EC50 amounted to 3.23 µM.

On to `CCN(CC)CCOc1cc2ccc(=O)oc2c2c1OC(C)(C)C=C2`, for which the Emax at 30 µM with Mesenteric artery [1] is < 10%.

As to `COc1cc2ccc(=O)oc2cc1O` [SCOPOLETIN], the Emax at 1000 µM in the experiment with Mesenteric artery [11] was found to be 89.2%. In addition, in the experiment with Mesenteric artery [3], the pD2 was 3.95 and the EC50 worked out at 112 µM.

`CCCCN(C)C(=O)CCCOc1cc2ccc(=O)oc2c2c1OC(C)(C)C=C2`: in the experiment on Mesenteric artery [1], the Emax at 30 µM is < 10%.
